Experimental data reported in PubChem BioAssay (NCI).
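1) Cells in 96-well plates. 2) Compound, 48 h, 5 concentrations. 3) Linear interpolation between surrounding doses. 4) Unreached endpoint = highest concentration. TGI denotes the concentration required for complete inhibition of growth.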

How the values were obtained:
Assay in all cases: growth of human tumour cells (NCI), 48 h
SK-MEL-2 melanoma = test system: SK-MEL-2 melanoma
OVCAR-8 ovarian = test system: OVCAR-8 ovarian
SK-OV-3 ovarian = test system: SK-OV-3 ovarian
NCI-H460 lung = test system: NCI-H460 lung
OVCAR-5 ovarian = test system: OVCAR-5 ovarian
HL-60(TB) leukemia = test system: HL-60(TB) leukemia
CAKI-1 renal = test system: CAKI-1 renal
IGROV1 ovarian = test system: IGROV1 ovarian
LOX IMVI melanoma = test system: LOX IMVI melanoma
MOLT-4 leukemia = test system: MOLT-4 leukemia
COLO 205 colon = test system: COLO 205 colon
U251 CNS = test system: U251 CNS
SNB-75 CNS = test system: SNB-75 CNS
SF-539 CNS = test system: SF-539 CNS
MALME-3M melanoma = test system: MALME-3M melanoma
SF-268 CNS = test system: SF-268 CNS
DLD-1 colon = test system: DLD-1 colon
EKVX NSCLC = test system: EKVX NSCLC
SNB-78 CNS = test system: SNB-78 CNS
DMS 273 small cell lung = test system: DMS 273 small cell lung

With `CN1C[C@H]2[C@@H](C1=O)[C@H](c1ccc([N+](=O)[O-])cc1)ON2C` the TGI (SK-MEL-2 melanoma) was greater than 100 µM, the TGI (OVCAR-8 ovarian) was greater than 100 µM and the TGI (SK-OV-3 ovarian) was greater than 100 µM. It also gave a TGI (NCI-H460 lung) greater than 100 µM, a TGI (OVCAR-5 ovarian) greater than 100 µM and a TGI (HL-60(TB) leukemia) greater than 100 µM. For the same molecule, the TGI (CAKI-1 renal) was greater than 100 µM, the TGI (IGROV1 ovarian) was greater than 100 µM and the TGI (LOX IMVI melanoma) was greater than 100 µM. It also gave a TGI (MOLT-4 leukemia) greater than 100 µM, a TGI (COLO 205 colon) greater than 100 µM and a TGI (U251 CNS) greater than 100 µM.

In the case of `COc1cc(C2C(Cl)C(=O)N2NC(=O)c2ccc(NC(C)=O)cc2)cc(Br)c1O` (centres undefined), the TGI (SK-MEL-2 melanoma) was greater than 100 µM, the TGI (OVCAR-8 ovarian) was greater than 100 µM and the TGI (SK-OV-3 ovarian) was greater than 100 µM. The TGI (NCI-H460 lung) was greater than 100 µM, the TGI (SNB-75 CNS) was greater than 100 µM and the TGI (SF-539 CNS) was greater than 100 µM. It also gave a TGI (OVCAR-5 ovarian) greater than 100 µM, a TGI (HL-60(TB) leukemia) greater than 100 µM and a TGI (IGROV1 ovarian) greater than 100 µM. For the same molecule, the TGI (MALME-3M melanoma) was greater than 100 µM, the TGI (SF-268 CNS) was greater than 100 µM and the TGI (MOLT-4 leukemia) was greater than 100 µM. It also gave a TGI (COLO 205 colon) greater than 100 µM, a TGI (DLD-1 colon) greater than 100 µM and a TGI (U251 CNS) greater than 100 µM.

`NC(=O)NC(CC(=O)O)C(=O)O` (centres undefined) was tested, and the TGI (SK-MEL-2 melanoma) was greater than 100 µM, the TGI (OVCAR-8 ovarian) was greater than 100 µM and the TGI (NCI-H460 lung) was greater than 100 µM. For the same molecule, the TGI (SNB-75 CNS) was greater than 100 µM, the TGI (OVCAR-5 ovarian) was greater than 100 µM and the TGI (CAKI-1 renal) was greater than 100 µM. The TGI (IGROV1 ovarian) was greater than 100 µM, the TGI (MALME-3M melanoma) was greater than 100 µM and the TGI (SF-268 CNS) was greater than 100 µM. It also gave a TGI (LOX IMVI melanoma) greater than 100 µM, a TGI (MOLT-4 leukemia) greater than 100 µM and a TGI (EKVX NSCLC) greater than 100 µM. It also gave a TGI (U251 CNS) greater than 100 µM.

Molecule `CC1C(=O)C(C)C(c2cccs2)N(N=O)C1c1cccs1` (centres undefined) has a TGI (SK-MEL-2 melanoma) greater than 100 µM, a TGI (OVCAR-8 ovarian) greater than 100 µM and a TGI (SK-OV-3 ovarian) greater than 100 µM. For the same molecule, the TGI (NCI-H460 lung) was greater than 100 µM, the TGI (SNB-75 CNS) was greater than 93 µM and the TGI (SNB-78 CNS) was greater than 100 µM. It also gave a TGI (SF-539 CNS) greater than 100 µM, a TGI (OVCAR-5 ovarian) greater than 100 µM and a TGI (HL-60(TB) leukemia) greater than 100 µM. For the same molecule, the TGI (CAKI-1 renal) was greater than 100 µM, the TGI (IGROV1 ovarian) was greater than 100 µM and the TGI (MALME-3M melanoma) was greater than 19.7 µM. For the same molecule, the TGI (SF-268 CNS) was greater than 100 µM, the TGI (LOX IMVI melanoma) was greater than 100 µM and the TGI (DMS 273 small cell lung) was greater than 100 µM. The TGI (MOLT-4 leukemia) was greater than 100 µM, the TGI (COLO 205 colon) was greater than 100 µM and the TGI (EKVX NSCLC) was greater than 100 µM. It also gave a TGI (DLD-1 colon) greater than 100 µM and a TGI (U251 CNS) greater than 100 µM.

`O=C1ON(Cc2ccccc2)C(c2ccccc2)N1c1ccccc1` (centres undefined) gave a TGI (SK-MEL-2 melanoma) greater than 100 µM, a TGI (OVCAR-8 ovarian) greater than 100 µM and a TGI (SK-OV-3 ovarian) greater than 100 µM. For the same molecule, the TGI (NCI-H460 lung) was greater than 100 µM, the TGI (SNB-75 CNS) was greater than 100 µM and the TGI (SNB-78 CNS) was greater than 100 µM. For the same molecule, the TGI (SF-539 CNS) was greater than 100 µM, the TGI (OVCAR-5 ovarian) was greater than 100 µM and the TGI (HL-60(TB) leukemia) was greater than 100 µM. For the same molecule, the TGI (IGROV1 ovarian) was greater than 100 µM, the TGI (MALME-3M melanoma) was greater than 100 µM and the TGI (SF-268 CNS) was greater than 100 µM. The TGI (LOX IMVI melanoma) was greater than 100 µM, the TGI (DMS 273 small cell lung) was greater than 100 µM and the TGI (MOLT-4 leukemia) was greater than 100 µM. It also gave a TGI (COLO 205 colon) greater than 100 µM, a TGI (EKVX NSCLC) greater than 100 µM and a TGI (DLD-1 colon) greater than 100 µM. For the same molecule, the TGI (U251 CNS) was greater than 100 µM.

For `CN(C)CCCc1cccnc1`, the TGI (SK-MEL-2 melanoma) was greater than 100 µM, the TGI (OVCAR-8 ovarian) was greater than 100 µM and the TGI (SK-OV-3 ovarian) was greater than 100 µM. The TGI (NCI-H460 lung) was greater than 100 µM, the TGI (SNB-75 CNS) was greater than 100 µM and the TGI (OVCAR-5 ovarian) was greater than 100 µM. For the same molecule, the TGI (HL-60(TB) leukemia) was greater than 100 µM, the TGI (CAKI-1 renal) was greater than 100 µM and the TGI (IGROV1 ovarian) was greater than 100 µM. The TGI (MALME-3M melanoma) was greater than 100 µM, the TGI (SF-268 CNS) was greater than 100 µM and the TGI (LOX IMVI melanoma) was greater than 100 µM. It also gave a TGI (COLO 205 colon) greater than 100 µM, a TGI (EKVX NSCLC) greater than 100 µM and a TGI (U251 CNS) greater than 100 µM.
